Like-named read-outs stand apart in the source and are kept apart here.
Legend:
Assay type in all cases: cell-based
[1] = tested on: Notch signalling; experiment: Notch reporter assay (12xCSL firefly luciferase / renilla luciferase, HEK293T Notch1ΔE reporter cell line clone #A1-11); parameters: AUC Notch: scale not given here; Confirmation screen: unit not given here; conditions: for IC50: bottom constrained to Emax of positive control DAPT
In short: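 Compounds at two-fold concentration in 10 µl medium were brought to one-fold by adding 10 µl holding 4000 Notch reporter cells (clone #A1-11) per well of a 384-well plate. After 24 h, Promega dual-GLO firefly and renilla luciferase were read on a SpectraMaxi3. Dose-response curves were fitted with a log(inhibitor) vs. response variable-slope model.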

[2] = target: γ-secretase complex (Homo sapiens, UniProt P49768); experiment: APP-C99 counter assay (GSI reporter assay); parameters: AUC APP: scale not given here
In short: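 Cells transfected with APP-C99 firefly luciferase reporter plus renilla normalization plasmid, seeded 24 h later onto compound plates and cultured 24 h. Dual luciferase read in triplicate per concentration; IC50 from variable-slope log(inhibitor) fit, with AUC also calculated from dose–response curves.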

[3] = tested on: Notch signalling; experiment: Notch reporter assay (12xCSL firefly luciferase / renilla luciferase, HEK293T Notch1ΔE reporter cell line clone #A1-11); conditions: 24 h, unit from Fig. 2 legend
[4] = 10µM, 3-point DR confirmation screen, Notch reporter assay
[5] = 10 µM, sheet conf vs counter 10 µM, same values as 3-point DR confirmation screen
[6] = 25µM, 3-point DR confirmation screen, Notch reporter assay
[7] = 25 µM, Notch reporter 3-point dose-confirmation assay, sheet "conf vs counter 25 µM"
[8] = 1,25µM, 3-point DR confirmation screen, Notch reporter assay
[9] = 10 µM, sheet conf vs counter 10 µM
[10] = 25 µM, sheet "conf vs counter 25 µM", same values given as % of DMSO in sheet "3p-DR in % of DMSO counter"
[11] = area under the 14-point dose-response curve, replicates averaged

| SMILES | 3p-DR in % of DMSO counter ([2]; 10µM, APP-C99 counter assay) | Counter screen (Hek APP-C99) [2, 9] | 3p-DR in % of DMSO counter ([2]; 25µM, APP-C99 counter assay) | Counter screen (Hek APP-C99) [2, 10] | 3p-DR in % of DMSO counter ([2]; 1,25µM, APP-C99 counter assay) | inhibitor ratio in % of DMSO in 3 point DR [1, 4] | Confirmation screen [1, 5] | inhibitor ratio in % of DMSO in 3 point DR [1, 6] | Confirmation screen [1, 7] | inhibitor ratio in % of DMSO in 3 point DR [1, 8] | Primary screen at 10 µM (Notch reporter signal) [3] | also measured |
| --- | --- | --- | --- | --- | --- | --- | --- | --- | --- | --- | --- | --- |
| Nc1ccc(Sc2nccnc2N2CCCC2)cc1 [CBK089520] | 34.9 % of DMSO | 34.9 | 11.6 % of DMSO | 11.6 | 115.4 % of DMSO | 42.1 % of DMSO | 42.1 | 27.1 % of DMSO | 27.1 | 103.0 % of DMSO | 43.1 % of DMSO | – |
| CCCC(=O)c1ccc(S(=O)(=O)N2CCN(Cc3csc(-c4ccccc4)n3)CC2)cc1 [CBK063161] | 124.1 % of DMSO | 124.1 | 120.8 % of DMSO | 120.8 | 122.5 % of DMSO | 67.2 % of DMSO | 67.2 | 76.4 % of DMSO | 76.4 | 102.6 % of DMSO | 68.2 % of DMSO | – |
| Cc1ccc(NC(=O)c2cnc(SCc3ccc(F)cc3)n(C)c2=O)cc1C [CBK287674] | 109.0 % of DMSO | 108.9 | 82.2 % of DMSO | 82.2 | 116.8 % of DMSO | 73.8 % of DMSO | 73.8 | 47.2 % of DMSO | 47.2 | 99.3 % of DMSO | 65.6 % of DMSO | – |
| C[C@@H]1C(=O)O[C@H]2[C@H]1CC[C@@]1(C)Cc3sc(NC(=O)CCC(=O)O)nc3[C@@H](C)[C@H]21 [CBK289429] | 23.7 % of DMSO | 23.6 | 12.4 % of DMSO | 12.4 | 76.3 % of DMSO | 38.0 % of DMSO | 38.0 | 25.1 % of DMSO | 25.1 | 77.4 % of DMSO | 35.5 % of DMSO | – |
| CC(C)Nc1cncc(OCc2ccc(Cl)c(Cl)c2)n1 [CBK115653] | 31.9 % of DMSO | 31.8 | 19.5 % of DMSO | 19.5 | 104.9 % of DMSO | 44.3 % of DMSO | 44.3 | 30.6 % of DMSO | 30.6 | 102.4 % of DMSO | 41.7 % of DMSO | – |
| Fc1cc(CN2CCC3(CC2)OCCc2c3[nH]c3ccc(Br)cc23)cc(F)c1F [CBK039943] | 118.1 % of DMSO | 118.1 | 117.4 % of DMSO | 117.4 | 92.8 % of DMSO | 83.6 % of DMSO | 83.6 | 75.1 % of DMSO | 75.1 | 111.8 % of DMSO | 63.6 % of DMSO | – |
| COc1ccc(C(=O)N2Cc3nc[nH]c3C[C@H]2c2nc(-c3ccc(OC)cc3)no2)cc1 [CBK288966] | – | – | – | – | – | – | – | – | – | – | – | Bottom (Emax) ([1]; 14p Notch assay DR, Emax indicated independent from assay constraints, in % (unit assumed)): 57.5; IC50 ([1]; Homo sapiens, HEK-293T, 14p Notch assay DR, read-out: approximated IC50): 5.4 µM; IC50 ([1]; Homo sapiens, HEK-293T, 14p Notch assay DR, log10 value, read-out: approximated LogIC50 (converted)): 5.01 µM; activity at 10 µM ([1]; Homo sapiens, HEK-293T, 10 µM, primary screen, 24 h, unit from Fig. 2 legend, read-out: Primary screen at 10 µM (Notch reporter signal)): 57.1%; activity at 10 µM ([1]; Homo sapiens, HEK-293T, 10 µM, three-dose confirmation screen, unit from Fig. 2 legend, read-out: Hit confirmation at 10 µM (Notch reporter signal)): 58.5%; activity at 10 µM ([1]; Homo sapiens, HEK-293T, 10µM, 3-point DR confirmation screen, Notch reporter assay, read-out: inhibitor ratio in % of DMSO in 3 point DR): 58.5%; activity at 10 µM ([1]; Homo sapiens, HEK-293T, 10 µM, sheet conf vs counter 10 µM, same values as 3-point DR confirmation screen, read-out: Confirmation screen): 58.5%; activity at 25 µM ([1]; Homo sapiens, HEK-293T, 25µM, 3-point DR confirmation screen, Notch reporter assay, read-out: inhibitor ratio in % of DMSO in 3 point DR): 61.1%; activity at 25 µM ([1]; Homo sapiens, HEK-293T, 25 µM, Notch reporter 3-point dose-confirmation assay, sheet "conf vs counter 25 µM", read-out: Confirmation screen): 61.1%; activity ([1]; Homo sapiens, HEK-293T, 1,25µM, 3-point DR confirmation screen, Notch reporter assay, read-out: inhibitor ratio in % of DMSO in 3 point DR): 83.6%; AUC Notch [1, 11]: 299.0; Hill-slope ([2]; 14p APP assay DR, bottom constrained to Emax of positive control LY-411575): -6.4; remaining activity at 10 µM ([2]; 24 h, 10µM, APP-C99 counter assay, read-out: 3p-DR in % of DMSO counter): 120%; remaining activity at 25 µM ([2]; 24 h, 25µM, APP-C99 counter assay, read-out: 3p-DR in % of DMSO counter): 78.7%; remaining activity at […] ([2]; 24 h, 1,25µM, APP-C99 counter assay, read-out: 3p-DR in % of DMSO counter): 112%; AUC APP [2, 11]: 443.8 |

Further lines, with some results ahead:

| 3p-DR in % of DMSO counter ([2]; 10µM, APP-C99 counter assay) | Counter screen (Hek APP-C99) [2, 9] | 3p-DR in % of DMSO counter ([2]; 25µM, APP-C99 counter assay) | Counter screen (Hek APP-C99) [2, 10] | 3p-DR in % of DMSO counter ([2]; 1,25µM, APP-C99 counter assay) | SMILES | inhibitor ratio in % of DMSO in 3 point DR [1, 4] | Confirmation screen [1, 5] | inhibitor ratio in % of DMSO in 3 point DR [1, 6] | Confirmation screen [1, 7] | inhibitor ratio in % of DMSO in 3 point DR [1, 8] | Primary screen at 10 µM (Notch reporter signal) [3] | also measured |
| --- | --- | --- | --- | --- | --- | --- | --- | --- | --- | --- | --- | --- |
| 93.1 % of DMSO | 93.1 | 78.1 % of DMSO | 78.1 | 112.2 % of DMSO | c1ccc2oc(CN3Cc4nc[nH]c4C[C@H]3c3nc(-c4ccc5c(c4)OCO5)no3)cc2c1 [CBK288998] | 72.8 % of DMSO | 72.8 | 66.3 % of DMSO | 66.3 | 89.6 % of DMSO | 68.4 % of DMSO | – |
| 62.4 % of DMSO | 62.4 | 22.0 % of DMSO | 22.0 | 131.3 % of DMSO | COc1ccc(-c2noc([C@@H]3Cc4[nH]cnc4CN3C(=O)CCC(=O)O)n2)cc1 [CBK288967] | 51.6 % of DMSO | 51.6 | 56.4 % of DMSO | 56.4 | 72.4 % of DMSO | 51.7 % of DMSO | – |
| 58.6 % of DMSO | 58.6 | 58.2 % of DMSO | 58.2 | 84.7 % of DMSO | O=C(Nc1sccc1C(=O)N1CCOCC1)C(Sc1ccccc1)c1ccccc1 (stereo not shown) [CBK268165] | 60.1 % of DMSO | 60.1 | 57.1 % of DMSO | 57.1 | 101.2 % of DMSO | 64.8 % of DMSO | – |
| 79.4 % of DMSO | 79.4 | 84.5 % of DMSO | 84.5 | 97.7 % of DMSO | O=C(NC(Nc1cccc(C(F)(F)F)c1)C(=O)c1ccccc1)c1ccc(Cl)cc1 (stereo not shown) [CBK263585] | 59.9 % of DMSO | 59.9 | 46.6 % of DMSO | 46.6 | 104.0 % of DMSO | 61.4 % of DMSO | – |
| 49.5 % of DMSO | 49.5 | 70.8 % of DMSO | 70.8 | 72.9 % of DMSO | COc1ccc2cc(C(=O)N3CCC(c4ccncc4)CC3)[nH]c2c1 [CBK283799] | 56.5 % of DMSO | 56.5 | 73.6 % of DMSO | 73.6 | 82.5 % of DMSO | 60.5 % of DMSO | – |
| 107.3 % of DMSO | 107.3 | 111.1 % of DMSO | 111.1 | 135.7 % of DMSO | NC(=O)c1[nH]nc(C2OC(CO)C(O)C2O)c1O (stereo not shown) [CBK201236] | 67.4 % of DMSO | 67.4 | 65.5 % of DMSO | 65.5 | 68.2 % of DMSO | 54.3 % of DMSO | – |
